The target of the test is human A2A receptor (A2AR) (Homo sapiens, UniProt P29274). Description: Luciferase reporter assay (HEK293-A2AR-luc2p/CRE/Hygro cells, 3 nM CGS21680). The class given is cell-based. Conditions: 3 nM CGS21680, 5 h incubation. Summed up:
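Antagonist (0.1–10000 nM) and 3 nM CGS21680 were co-added for 5 h to stable HEK293-A2AR-luc2p/CRE cells, 18 h after seeding in 1% FBS medium containing adenosine deaminase. Luminescence was normalized to agonist alone (100%), and IC50 came from the dose–inhibition curve.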
In general terms: Reporter assays use an easily measured gene product as a stand-in for the process of interest.

Usually IC50 stands for the concentration that inhibits the measured activity by half. Read a low IC50 as higher potency.

human A2A receptor (A2AR), sequence (P29274 whole entry): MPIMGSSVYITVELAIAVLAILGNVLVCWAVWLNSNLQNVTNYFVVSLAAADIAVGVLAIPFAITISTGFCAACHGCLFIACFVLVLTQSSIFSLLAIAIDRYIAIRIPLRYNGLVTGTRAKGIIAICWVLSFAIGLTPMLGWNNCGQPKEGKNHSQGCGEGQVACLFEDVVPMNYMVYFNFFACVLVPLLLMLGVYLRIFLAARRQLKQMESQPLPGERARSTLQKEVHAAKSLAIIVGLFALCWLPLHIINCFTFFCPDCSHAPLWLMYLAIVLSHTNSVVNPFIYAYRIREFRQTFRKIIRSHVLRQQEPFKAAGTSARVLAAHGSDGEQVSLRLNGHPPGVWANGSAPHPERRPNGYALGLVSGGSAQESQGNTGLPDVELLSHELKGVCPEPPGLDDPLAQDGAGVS

For `COCCOc1ccc(N2CCN(C(=O)C(c3ccccc3)n3ncc4c3nc(N)n3nc(-c5ccco5)nc43)[C@H](C)C2)cc1` (stereo partly drawn) [Compound A50, 2-(5-amino-2-(furan-2-yl)-7H-pyrazolo[4,3-e][1,2,4]triazolo[1,5-c]pyrimidin-7-yl)-1-((R)-4-(4-(2-methoxyethoxy)phenyl)-2-methylpiperazin-1-yl)-2-phenylethan-1-one], inhibition was half-maximal at 1.5 nM (IC50).

`COCCOc1ccc(N2CCN(C(=O)C(C3CCNCC3)n3ncc4c3nc(N)n3nc(-c5ccco5)nc43)CC2)cc1` (stereo not shown) [Compound A58, 2-(5-amino-2-(furan-2-yl)-7H-pyrazolo[4,3-e][1,2,4]triazolo[1,5-c]pyrimidin-7-yl)-1-(4-(4-(2-methoxyethoxy)phenyl)piperazin-1-yl)-2-(piperidin-4-yl)ethan-1-one] returned an IC50 greater than 10000 nM.

`COCCOc1ccc(N2CCN(C(=O)C(C)(c3cccc(F)c3)n3ncc4c3nc(N)n3nc(-c5ccco5)nc43)CC2)cc1` (stereo not shown) [Compound A86, 2-(5-amino-2-(furan-2-yl)-7H-pyrazolo[4,3-e][1,2,4]triazolo[1,5-c]pyrimidin-7-yl)-2-(3-fluorophenyl)-1-(4-(4-(2-methoxyethoxy)phenyl)piperazin-1-yl)propan-1-one]: the IC50 amounted to 6.8 nM.

`COCCOCCOc1ccc(N2CCN(C(=O)C(CC(C)C)n3cc4c(nc(N)n5nc(-c6ccco6)nc45)n3)CC2)cc1` (stereo not shown) [Compound C18, 2-(5-amino-2-(furan-2-yl)-8H-pyrazolo[4,3-e][1,2,4]triazolo[1,5-c]pyrimidin-8-yl)-1-(4-(4-(2-(2-methoxyethoxy)ethoxy)phenyl)piperazin-1-yl)-4-methylpentan-1-one] gave a 50% inhibitory concentration (IC50) of 90.2 nM.

In turn, `COCCOc1cc(F)c(N2CCN(C(=O)C(c3ccccc3)n3ncc4c3nc(N)n3nc(-c5ccco5)nc43)CC2)cc1F` (stereo not shown) [Compound A57, 2-(5-amino-2-(furan-2-yl)-7H-pyrazolo[4,3-e][1,2,4]triazolo[1,5-c]pyrimidin-7-yl)-1-(4-(2,5-difluoro-4-(2-methoxyethoxy)phenyl)piperazin-1-yl)-2-phenylethan-1-one] returned an IC50 of 5.3 nM. This IC50 is about 17-fold lower than that of the compound before.

Consider `COCCOc1ccc(N2CCN(C(=O)C(C)(c3ccccc3)n3ncc4c3nc(N)n3nc(-c5ccco5)nc43)CC2)cc1F` (stereo not shown) [Compound A66, 2-(5-amino-2-(furan-2-yl)-7H-pyrazolo[4,3-e][1,2,4]triazolo[1,5-c]pyrimidin-7-yl)-1-(4-(3-fluoro-4-(2-methoxyethoxy)phenyl)piperazin-1-yl)-2-phenylpropan-1-one], for which the IC50 was found to be 6.5 nM.

Take `CN1CCN(C(=O)C(C)(c2ccccc2)n2ncc3c2nc(N)n2nc(-c4ccco4)nc32)CC1` (stereo not shown) [Compound B27, 2-(5-amino-2-(furan-2-yl)-7H-pyrazolo[4,3-e][1,2,4]triazolo[1,5-c]pyrimidin-7-yl)-1-(4-methylpiperazin-1-yl)-2-phenylpropan-1-one]: the concentration for half-maximal inhibition (IC50) was 30.3 nM. Compared with the last compound, the IC50 is about 4.7-fold higher.

In the case of `Nc1nc2c(cnn2C(C(=O)N2CCc3c(F)cccc3C2)c2ccccc2)c2nc(-c3ccco3)nn12` (stereo not shown) [Compound B12, 2-(5-amino-2-(furan-2-yl)-7H-pyrazolo[4,3-e][1,2,4]triazolo[1,5-c]pyrimidin-7-yl)-1-(5-fluoro-3,4-dihydroisoquinolin-2(1H)-yl)-2-phenylethan-1-one], the concentration for half-maximal inhibition (IC50) was determined as 2.5 nM.

In turn, `COCCOCCOc1ccc(N2CCN(C(=O)C(CC(C)C)n3ncc4c3nc(N)n3nc(-c5ccco5)nc43)CC2)cc1` (single isomer, unassigned) [Compound A17a] registered an IC50 of 0.9 nM. This IC50 lies about 2.8-fold lower than the previous one.

Compound `Nc1nc2c(cnn2C(C(=O)N2CCc3cc(F)ccc3C2)c2ccccc2)c2nc(-c3ccco3)nn12` (single isomer, unassigned) [Compound B7a] displayed an IC50 of 29.1 nM. This IC50 lies about 32-fold higher than the previous one.

As for `COCCOc1ccc(N2CC(C)N(C(=O)C(c3ccccc3)n3ncc4c3nc(N)n3nc(-c5ccco5)nc43)C(C)C2)cc1` (stereo not shown) [Compound A59, 2-(5-amino-2-(furan-2-yl)-7H-pyrazolo[4,3-e][1,2,4]triazolo[1,5-c]pyrimidin-7-yl)-1-(4-(4-(2-methoxyethoxy)phenyl)-2,6-dimethylpiperazin-1-yl)-2-phenylethan-1-one], inhibition was half-maximal at 18.4 nM (IC50). This IC50 lies about 1.6-fold lower than the previous one.

As for `COCCOc1ccc(N2CCN(C(=O)C(C)n3ncc4c3nc(N)n3nc(-c5ccco5)nc43)CC2)cc1` (stereo not shown) [Compound A1, 2-(5-amino-2-(furan-2-yl)-7H-pyrazolo[4,3-e][1,2,4]triazolo[1,5-c]pyrimidin-7-yl)-1-(4-(4-(2-methoxyethoxy)phenyl)piperazin-1-yl)propan-1-one], half-maximal inhibition (IC50) was put at 42.9 nM.

`COCCOc1ccc(N2CCN(C(=O)C(C)(c3ccccc3OC)n3ncc4c3nc(N)n3nc(-c5ccco5)nc43)CC2)cc1` (stereo not shown) [Compound A93, 2-(5-amino-2-(furan-2-yl)-7H-pyrazolo[4,3-e][1,2,4]triazolo[1,5-c]pyrimidin-7-yl)-1-(4-(4-(2-methoxyethoxy)phenyl)piperazin-1-yl)-2-(2-methoxyphenyl)propan-1-one] yielded an IC50 of 0.6 nM.

`C[C@@](C(=O)N1CCN(c2ccc(OCCN3CCOCC3)cc2)CC1)(c1ccccc1)n1ncc2c1nc(N)n1nc(-c3ccco3)nc21` [Compound A80a, (S)-2-(5-amino-2-(furan-2-yl)-7H-pyrazolo[4,3-e][1,2,4]triazolo[1,5-c]pyrimidin-7-yl)-1-(4-(4-(2-morpholinoethoxy)phenyl)piperazin-1-yl)-2-phenylpropan-1-one] had an IC50 of 7.4 nM.

As for `CCCC(C(=O)N1CCN(c2ccc(OCCOC)cc2)CC1)n1cc2c(nc(N)n3nc(-c4ccco4)nc23)n1` (stereo not shown) [Compound C5, 2-(5-amino-2-(furan-2-yl)-8H-pyrazolo[4,3-e][1,2,4]triazolo[1,5-c]pyrimidin-8-yl)-1-(4-(4-(2-methoxyethoxy)phenyl)piperazin-1-yl)pentan-1-one], it took 132 nM to reach half-maximal inhibition (IC50).

In turn, `CC(C(=O)N1CCN(c2ccc(F)cc2)CC1)(c1ccccc1)n1ncc2c1nc(N)n1nc(-c3ccco3)nc21` (stereo not shown) [Compound A70, 2-(5-amino-2-(furan-2-yl)-7H-pyrazolo[4,3-e][1,2,4]triazolo[1,5-c]pyrimidin-7-yl)-1-(4-(4-fluorophenyl)piperazin-1-yl)-2-phenylpropan-1-one] gave an IC50 of 5 nM.

The compound `COCCOc1ccc(N2CCN(C(=O)C(c3ccccc3OC)n3ncc4c3nc(N)n3nc(-c5ccco5)nc43)CC2)cc1` (stereo not shown) [Compound A31, 2-(5-amino-2-(furan-2-yl)-7H-pyrazolo[4,3-e][1,2,4]triazolo[1,5-c]pyrimidin-7-yl)-1-(4-(4-(2-methoxyethoxy)phenyl)piperazin-1-yl)-2-(2-methoxyphenyl)ethan-1-one] came in with a concentration for half-maximal inhibition (IC50) of 0.6 nM.

As to `COCCOc1ccc(N2CCN(C(=O)C(C)n3cc4c(nc(N)n5nc(-c6ccco6)nc45)n3)CC2)cc1` (stereo not shown) [Compound C1, 2-(5-amino-2-(furan-2-yl)-8H-pyrazolo[4,3-e][1,2,4]triazolo[1,5-c]pyrimidin-8-yl)-1-(4-(4-(2-methoxyethoxy)phenyl)piperazin-1-yl)propan-1-one], half-maximal inhibition (IC50) was put at 28.4 nM.

`COCCOc1ccc(N2CCN(C(=O)[C@@](C)(c3ccccc3)n3ncc4c3nc(N)n3nc(-c5ccco5)nc43)CC2)cc1F` [Compound A66b, (R)-2-(5-amino-2-(furan-2-yl)-7H-pyrazolo[4,3-e][1,2,4]triazolo[1,5-c]pyrimidin-7-yl)-1-(4-(3-fluoro-4-(2-methoxyethoxy)phenyl)piperazin-1-yl)-2-phenylpropan-1-one] had an IC50 of 3.3 nM.

Source of the values: patent publication US20210300936A1, “PYRAZOLOTRIAZOLOPYRIMIDINE DERIVATIVES AS A2A RECEPTOR ANTAGONIST” (BEIGENE, LTD., priority 2018, published 2021).
